In article PMC12040169 (PLOS Biology, 2025):

Test: in vitro
Details: human, hela cells, % viability

Row | Compound | viability at 28.5 h, 10 µM
1 | CCNc1cc(-c2cccc(N)c2)ncn1 [CBK037731] | 96.4%
2 | Cc1nc2ccc(NC(=O)CCn3nc(C)c(Cl)c3C)cc2s1 [CBK281634] | 106%
3 | OCCN(Cc1cccnc1)CC1(c2ccc(Cl)cc2)CC1 [CBK282943] | 101%
4 | O=C(COc1ccc2ccccc2c1)N[C@@H](C(=O)O)c1ccc(O)cc1 [CBK286571] | 88.8%
5 | O=c1ccc(O)nn1CN1CCN(Cc2ccccc2)CC1 [CBK265539] | 91.5%
6 | OC(CNCC1COc2ccccc2O1)C(F)(F)F (centres unmarked) [CBK074834] | 102%
7 | COc1ccc(Sc2cc(C(F)(F)F)ccn2)cc1OC [CBK093762] | 92.5%
8 | C#CCN(C1CCc2ccccc21)S(=O)(=O)c1cc(C(N)=O)n(C)c1 (centres unmarked) [CBK304287] | 95.1%
9 | CCn1cc(-c2cncn2CCOc2ccc(Cl)cc2)cn1 [CBK281776] | 81.8%
10 | CCOC(=O)N1CCC(NC(=O)N(CCc2ccccc2)Cc2ccccc2)CC1 [CBK155359] | 107%
11 | CC(NC(=O)N1CCN(CCc2ccccc2)CC1)c1ccccc1 (centres unmarked) [CBK158935] | 85.1%
12 | Cc1nn(C)c(N2CCNCC2)c1NC(=O)c1cnccn1 [CBK050308T] | 86.3%
13 | COc1ccc(S(=O)(=O)NCCCn2ccnc2)cc1Cl [CBK269997] | 97.2%
14 | OC1(c2cccnc2)C2CCCC1CN(Cc1ccc(F)cc1)C2 (centres unmarked) [CBK285204] | 89.8%
15 | Cc1c(-c2cc(C(=O)NC(C)C3CC4CCC3C4)no2)cnn1C (centres unmarked) [CBK281653] | 91.3%
16 | CCCCSc1nc(N)cc(N2CCC(C(=O)N3CCOCC3)CC2)n1 [CBK306619] | 96.8%
17 | CCCn1ncc(CN2CCC3(CC2)CC(C(=O)O)N(C(C)=O)C3)c1C (centres unmarked) [CBK306612] | 86.7%
18 | O=C(c1ccc2c(c1)N(Cc1ccc(F)cc1)C(=O)CO2)c1cccs1 [CBK286410] | 92.3%
19 | COc1ccc(C2(C(=O)NCc3ccc(-c4ccc(C(N)=O)c(C)n4)cc3)CCCC2)cc1 [CBK285647] | 96%
20 | O=C(O)CSc1nc2ccccc2n2cnnc12 [CBK269831] | 92.8%
21 | O=C(NC(c1ccccn1)c1cccs1)C1CCN(S(=O)(=O)c2ccc(C(F)(F)F)cc2)CC1 (centres unmarked) [CBK060153] | 92.4%
22 | CCOC(=O)CC1SC(NS(=O)(=O)c2ccc(Br)cc2)=NC1=O (centres unmarked) [CBK014126] | 93.5%

Row | Compound | viability at 28.5 h, 10 µM
23 | Cc1nn(C)c(Cl)c1S(=O)(=O)Nc1ccc2cc(Br)cnc2n1 [CBK073892] | 78.3%
24 | COc1cccc([C@H]2CC[C@H](N(CCN(C)C)C(=O)Nc3cc(F)ccc3F)CC2)c1OC [CBK050184] | 113%
25 | CC(=O)N/C(=C/c1ccccc1)C(=O)NCCC(=O)O [CBK264046] | 87.2%
26 | O=C(c1nccs1)C1CCN(C(=O)Cc2ccccc2Cl)CC1 [CBK284162] | 87.4%
27 | O=C(Cn1cnnn1)N1CCc2ccccc2C1 [CBK200335] | 101%
28 | O=C(CSc1nccn1-c1ccccc1)Nc1ccc(F)cc1 [CBK287399] | 76.1%
29 | CN(C)CCN(Cc1ccccc1)C(=O)NCc1ccc(Cl)cc1 [CBK155106] | 94.2%
30 | COc1ccc(/C=N/Nc2nc(OC)nc(N3CCOCC3)n2)cc1 [CBK025751] | 91.6%
31 | COc1cncc(C(NC(=O)c2ccn3nnnc3c2)[C@H]2C[C@@H](O)C2)c1 (some centres unmarked) [CBK306686] | 96.2%
32 | CCC(=O)Nc1ccc(-c2csc(N3CCCC(C)C3)n2)cc1 (centres unmarked) [CBK306478] | 83.3%
33 | CN1CCC2(CCC1=O)CC(NC(=O)C1CC1)c1ccccc1O2 (centres unmarked) [CBK284455] | 93.3%
34 | CC(=O)OC(COc1ccc(F)cc1)Cn1cnc2ccccc21 (centres unmarked) [CBK266162] | 104%
35 | O=C(NCCN1CCCC1=O)Nc1ccccc1 [CBK263517] | 116%
36 | CCN(CC)c1ccc(C(=O)Cn2c(=O)n(C(=O)c3cccc(S(C)(=O)=O)c3)c3ccccc32)cc1 [CBK106500] | 94.2%
37 | O=c1c(N2CCN(CCOc3ccccc3)CC2)nccn1CCOc1cc(F)c(F)cc1F [CBK045934C] | 103%
38 | COC(=O)[C@H]1CN(C(=O)c2ccncc2)C[C@@H]1c1ccc(F)cc1 [CBK283509] | 94.2%
39 | COC(=O)c1ccc(NC(=O)CSc2nnc(-c3ccc(C)cc3)n2N)cc1 [CBK266114] | 89.9%
40 | Cc1nc2cc(C(=O)O)ccc2n1CCO [CBK260949] | 106%
41 | O=C(Cn1cnc(-c2nccs2)n1)N1CCCCCC1 [CBK306165] | 97.5%
42 | CCCOC(=O)c1c(NC(=O)c2cc(-c3ccccc3)nc3ccccc23)sc2c1CCC(C)C2 (centres unmarked) [CBK262647] | 93.9%
43 | O=S(=O)(Nc1ccc(-c2nnn[nH]2)cc1)c1c(Cl)cc(C(F)(F)F)cc1Cl [CBK155570] | 95.4%
44 | O=C(CSc1nnc2c(n1)[nH]c1ccccc12)NCCOc1ccccc1 [CBK268358] | 101%

Row | Compound | viability at 28.5 h, 10 µM
45 | O=C(COc1ccc2ccccc2c1)Nc1ccc(CN2CCOCC2)cc1 [CBK265754] | 121%
46 | COc1cccc(-c2nn(CCC#N)cc2C(=O)N2CCCCC2)c1 [CBK305942] | 101%
47 | COCc1ccc(CN2CCC3(CCc4ccccc4C(=O)N3)C2)o1 (centres unmarked) [CBK284651] | 94.3%
48 | Cc1nc2n(n1)C(c1ccccn1)C1=C(CC(C)CC1=O)N2 (centres unmarked) [CBK288230] | 82.9%
49 | Cc1ccc(C)c(-c2csc3c(=O)[nH]cnc23)c1 [CBK288556] | 101%
50 | COc1ccc(C(NC(=O)N2CCN(C(=O)NCc3ccccc3Cl)CC2)c2ccccc2C)cn1 (centres unmarked) [CBK081471] | 88.7%
51 | CCNC(=O)c1ccc(-c2ccc(S(C)(=O)=O)cc2)nc1 [CBK158882] | 91.9%
52 | C1CN(c2nc(N3CCOCC3)nc(N3CCOCC3)n2)CCN1 [CBK261380] | 84.9%
53 | Cc1ccc(-c2ccccc2CC2(C(=O)Nc3ccc(C(N)=O)cc3)CCOCC2)c(C)c1 [CBK286422] | 95.9%
54 | COc1ccc(S(=O)(=O)Nc2cc(N3CCCC3)c3occc3c2)cc1OC [CBK061975] | 97.2%
55 | Cc1cc(-c2cnoc2C2CCCN(C(=O)c3cccs3)C2)on1 (centres unmarked) [CBK284480] | 102%
56 | CN(C)[C@H]1CCCC[C@@H]1n1c(-c2ccc(Cl)c(Cl)c2)n[nH]c1=O [CBK010566] | 114%
57 | CCc1onc(C)c1NC(=O)NC1CC2(CCCC2)Oc2ccccc21 (centres unmarked) [CBK305890] | 97.6%
58 | C[C@@H]1CN(C(=O)c2ccc3[nH]cnc3c2)C[C@H](C)O1 [CBK200120] | 106%
59 | Cc1cc(C2CCCCCN2C(=O)c2c(C)noc2C)on1 (centres unmarked) [CBK284844] | 90%
60 | O=C([C@H]1CN2CCC1C[C@@H]2Cn1cc(COc2ccccc2)nn1)N1CCOCC1 (some centres unmarked) [CBK288734] | 113%
61 | CCOC(=O)Cn1c(-c2ccc(OC)cc2)cc2cccnc21 [CBK283320] | 84.2%
62 | CC(Cn1cccn1)NCC(=O)N(C)C1(C#N)CCCCC1 (centres unmarked) [CBK305096] | 91.5%
63 | Cc1ccc2sc(NC(=O)c3ccc(Cl)s3)nc2c1C [CBK291144] | 103%
64 | CCOC(=O)c1cnn2c(O)cc(CN3CCc4ccccc4C3)nc12 [CBK305679] | 97.2%
65 | CCCC/C=C/c1cn2ccnc2c(Nc2cccc(OCC(=O)N(C)C)c2)n1 [CBK066185] | 108%
66 | CCOC(=O)c1cc(NC(=O)CSc2nc3ccccc3[nH]2)ccc1Cl [CBK266557] | 99.8%

Row | Compound | viability at 28.5 h, 10 µM
67 | CCCNC(CC(=O)Nc1ccccc1)C(=O)O (centres unmarked) [CBK266819] | 95.3%
68 | COc1ccc(CNC(=O)CSc2cnn[nH]2)cc1 [CBK269881] | 85.6%
69 | CCCC(=O)c1ccc(S(=O)(=O)N2CCN(Cc3ccc4cccc(O)c4n3)CC2)cc1 [CBK063158] | 102%
70 | CC(C)(Cc1ccccc1)NCC(O)COc1ccc2c(c1)C1CCC2C1 (centres unmarked) [CBK018228C] | 86.4%
71 | CN(C)S(=O)(=O)c1ccc(-c2nn(-c3ccccc3)cc2/C=C(\C#N)c2nc3ccccc3c(=O)[nH]2)cc1 [CBK266266] | 101%
72 | CCOC(=O)c1cc(-c2cccc(Cl)c2)oc1C [CBK045775] | 104%
73 | Cc1nn(C)c(Sc2ccccc2)c1[N+](=O)[O-] [CBK002937] | 97.9%
74 | O=C(c1ccc(F)cc1)[C@H]1CCCN(C(=O)c2cc(C3CC3)n[nH]2)C1 [CBK282410] | 99.6%
75 | CN1CCN(C(=O)c2cccc(-c3nccnc3NCc3cccc(Cl)c3)c2)CC1 [CBK037048] | 108%
76 | COCCNC(=O)c1cc(C2CN(CCc3ccccc3)CCO2)nc2ccccc12 (centres unmarked) [CBK285622] | 99.4%
77 | Brc1ccc(-c2ccnc3nc(-c4ccncc4)nn23)cc1 [CBK288623] | 102%
78 | COc1ccc(NC(=O)c2cc(C(F)(F)F)cc(C(F)(F)F)c2)cn1 [CBK057634] | 85.1%
79 | O=S(=O)(Nc1ncc(Br)c2cccnc12)c1ccc(Oc2ccccc2)cc1 [CBK073886] | 105%
80 | C/C(=N/OCO/N=C(\C)c1cccc([N+](=O)[O-])c1)c1cccc([N+](=O)[O-])c1 [CBK260872] | 89%
81 | CCCn1cnc2cc(NC(=O)c3ccc(=O)n(CC(=O)N(C)c4ccccc4)c3)ccc21 [CBK286026] | 94.3%
82 | O=C(C1CCCC1)N1CCCC(c2cc3cccnc3[nH]2)C1 (centres unmarked) [CBK284979] | 105%
83 | Cc1cccc(Cn2nc(C)c(NC(=O)COc3ccccc3)c2C)c1 [CBK270007] | 93.5%
84 | O=C(c1nccc2ccccc12)N1CCc2ccccc21 [CBK200405] | 93.5%
85 | CSc1ccccc1C(=O)Nc1sc2c(c1C#N)CCN(C(C)=O)C2 [CBK304183] | 55.3%
86 | OCCNc1nc(-c2ccccc2)cn2ccnc12 [CBK066379] | 97.6%
87 | CCn1cc(S(=O)(=O)NC2(c3ccccc3)CCCC2)cn1 [CBK282767] | 90.6%
88 | O=C(Nc1cccc(Br)c1)/C(=C\c1cccnc1)NC(=O)c1ccccc1 [CBK261450] | 85.8%

Same assay, conditions: human, hela cells, % viability, bulk resorufin, single well

Row | Compound | viability at 28.5 h, 10 µM
89 | COc1ccc(CC(=O)N2CCC(C#N)(c3ccccc3)CC2)c(OC)c1 [CBK091388] | 91.4%
